The data set in a line: GSNO decomposition at different pH values, monitored spectrophotometrically at 540 nm (FIG. 3). It is filed as physicochemical. An excerpt:
The GSNO is a brown colored compound having a characteristic absorption spectrum. One of its two characteristic peaks is in the UV range, while the maximum of the other is around 540 nm. During decomposition the absorption spectrum of GSNO goes through a change. The change in the height of the peak at 540 nm is linearly proportional with the concentration of GSNO. Wavelengths at far IR range can be used as background absorption, since no change occurs in them during the decomposition process of GSNO. These features allow monitoring the concentration of GSNO spectrophotometrically. […] On the X-axis the time (given in days) and on the Y-axis absorbency values are given. Symbols Indicate the Following pH Values: • *: pH=0.3; • ♦: pH=4.26; • □: pH=7.4; • ▪: pH=8.6; • ◯: pH=12.6. The decomposition of GSNO was monitored spectrophotometrically, since the absorption spectrum of GSNO undergoes changes and the size change of the peak at 540 nm is linearly proportional with the concentration of GSNO. Wavelengths at far IR range were used as background absorption, since no change occurs in them during the decomposition of GSNO.

As to `N[C@@H](CCC(=O)N[C@@H](CSN=O)C(=O)NCC(=O)O)C(=O)O` [GSNO, S-nitrosoglutathione], the “GSNO metabolism (decomposition)” value (more alkaline conditions, curve of pH 12) was “gets accelerated”. In addition, the stability entry (pH about 8.6, compared with conventionally applied pH 4.26) is listed as “very good stability”. In addition, for the setting “pH range”, the “pH range of plateau-like maximum of stability” value was in the range of 7.5 to 10. Where the note is “under alkaline conditions”, the “metabolic rate of GSNO” value is “significantly be decreased”.

The values above are taken from patent US8404266B2, “Method for stabilization of S-nitrosoglutathione and composition prepared by the same” (Pharmagenix AG, priority 2008, dated 2013).
